# What was measured:
# Format in all cases: in vivo
# [1] = test system: small-flower umbrella sedge; assay: Field study, 1-sq foot plots (Example 5); conditions: 14 days after treatment
# Description: (§1) The combined effect of thaxtomin A and two commercial herbicides (Bipyribac-sodium formulated as Regiment and Lemongrass oil formulated as GreenMatch EX) on small-flower umbrella sedge and watergrass is tested in a field study using small (1-sq foot) plots. All single product treatments and tank mix combinations were sprayed at 57 gal per acre. Means in each column marked with the same letter in Table 2 are not statistically different from each other at p<0.05
# [2] = test system: watergrass; assay: Field study, 1-sq foot plots (Example 5); conditions: 14 days after treatment
# Description: as §1
# [3] = test system: Bluegrass (Poa annua); assay: Pre-emergence test of MBI-005, lab & field (Example 12); conditions: pre-emergent; also: ranges in brackets are in %
# Description: (§2) To further describe the spectrum of pre-emergence activity, tests were conducted in laboratory and field conditions. In laboratory testing, 35 seeds were placed on a ring of blotter paper inside a 3 cm petri dish and supplied with 4 ml of MBI-005 (≦0.1 mg MBI-005/ml). Water was used as a negative control and oryzalin applied as a positive control. Petri dishes were randomly placed in a growth room at 25° C. and 50% RH. Treatments were replicated three times and germinated seeds were counted 7 and 14 days after application; water was added as necessary to maintain moisture levels inside each petri dish.
# (§3) In field testing, field soil containing weed seeds were treated with 38.2 L MBI-005/ha at a spray volume of 280 L/ha using a CO2 sprayer with flat fan nozzles. Treatments, including water as the negative control and Gallery as the positive control, were replicated four times and applied twice at a four week interval. Treatments were evaluated visually as % cover and above-ground fresh weights per container were taken.
# [4] = test system: Crabgrass (Digitaria sanguinalis); assay: as above; conditions: pre-emergent; also: ranges in brackets are in %
# Description: as §2, §3
# [5] = test system: annual grasses and broadleaves, some perennials; assay: Pre-emergence spectrum of MBI-005, overall (Example 12); conditions: some perennials (Table 12)
# Description: as §2, §3
# [6] = test system: Lambsquarters (Chenopodium album); assay: Pre-emergence test of MBI-005, lab (Example 12); conditions: pre-emergent; also: ranges in brackets are in %
# Description: as §2
# [7] = test system: Ryegrass (Lolium perenne); assay: Pre-emergence test of MBI-005, lab (Example 12); conditions: pre-emergent; also: ranges in brackets are in %
# Description: as §2
# [8] = test system: Clover (Trifolium repens); assay: Pre-emergence test of MBI-005, lab (Example 12); conditions: pre-emergent; also: ranges in brackets are in %
# Description: as §2
# [9] = test system: Horseweed (R) (Conyza canadensis); assay: Pre-emergence test of MBI-005, lab (Example 12); conditions: pre-emergent, herbicide resistant population; also: ranges in brackets are in %
# Description: as §2
# [10] = test system: Bristlegrass/Foxtail (Setaria viridis); assay: Pre-emergence test of MBI-005, lab (Example 12); conditions: pre-emergent; also: ranges in brackets are in %
# Description: as §2
# [11] = test system: Fall Panicum (Panicum dichotomiflorum); assay: Pre-emergence test of MBI-005, lab (Example 12); conditions: pre-emergent; also: ranges in brackets are in %
# Description: as §2
# [12] = test system: Late watergrass (R) (Echinochloa phyllopogon); assay: Pre-emergence test of MBI-005, lab (Example 12); conditions: pre-emergent, herbicide resistant population; also: ranges in brackets are in %
# Description: as §2
# [13] = test system: Mustard (Brassica juncea); assay: Pre-emergence test of MBI-005, lab (Example 12); conditions: pre-emergent
# Description: as §2
# [14] = test system: Barnyardgrass (Echinochloa crus-gali); assay: Pre-emergence test of MBI-005, lab (Example 12); conditions: pre-emergent; also: ranges in brackets are in %
# Description: as §2
# [15] = test system: crabgrass; assay: Post-emergent MBI-005 + Chelated Fe on crabgrass (Example 16); conditions: 15 DAT
# Description: Ten seedlings in 2.5 cm square pots containing plant growth mix were sprayed with two suboptimal rates of MBI-005, 14.49 mg/mL of Chelated Fe, or a combination thereof, at a volume of 40 gal/A using a cabinet track sprayer. Negative controls were sprayed with water. Pots were randomly placed in a growth room at 25° C. and 50% RH, and watered as necessary. Treatments were replicated five times and evaluated at 7 and 15 days for visual % damage, with 0% indicating no damage and 100% indicating plant death.
# Synergy was calculated as the ratio of observed (E) to expected (E/Ee) percent control using Colby's formula.
# [16] = test system: barnyard grass; assay: Post-emergent MBI-005 + rice herbicides on barnyard grass (Example 18); conditions: 14 days
# Description: Ten seedlings in 2.5 cm square pots containing plant growth mix were sprayed to full coverage using a hand sprayer. Negative controls were sprayed with water. Pots were randomly placed in a growth room at 25° C. and 50% RH, and watered as necessary. Treatments were replicated three times and evaluated at 7 and 14 days for visual % damage, with 0% indicating no damage and 100% indicating plant death.
# Synergistic effect were noted between MBI-005 and all three rice herbicides, 14 days after treatment. Synergy was calculated as the ratio of observed (E) to expected (E/Ee) percent control using Colby's formula.
# [17] = test system: corn (Zea mays var. Early Sunglow); assay: Pot study, phytotoxicity on corn (Example 2); conditions: 0.5 and 1.0 mg/mL, 7, 14 and 21 days after treatment
# Description: A pot study is conducted to test the phytotoxicity of thaxtomin A on corn (Zea mays var. Early Sunglow) and wheat (Triticum aestivum var. PR1404). To confirm the activity on broadleaf weeds, pigweed (Amaranthus sp.) is planted in the same pot with either three corn or five wheat seeds, and sprayed simultaneously with the cereal test plants. The less than 3-inch tall plants grown under growth lights (12-h light/12-h dark) at 28° C. are sprayed with thaxtomin A solutions derived from a liquid culture of S. acidiscabies containing 0.5, and 1.0 mg thaxtomin A per mL of solvent (4% ethanol and 0.2% non-ionic surfactant). A solution of 4% ethanol +0.2% non-ionic surfactant without thaxtomin A is used as a control treatment. Each treatment is conducted in three replicates. Treated plants are kept at 28° C. under growth lights and observed at three time points—7, 14 and 21 days after treatment—for visual symptoms of phytotoxicity on corn and wheat and % control of pigweed.
# [18] = test system: annual broadleaves, sedges and grasses; assay: Post-emergence spectrum of MBI-005, overall (Example 13); conditions: unless surfactants are added
# Description: To further describe the spectrum of post-emergence activity, tests were conducted in laboratory and field conditions. For laboratory testing, 3-10 plants (depending on the species) at the 1-2 leaf stage plants in 2.5 cm square pots containing Sunshine Mix No. 2 planting media were sprayed at 1 mg MBI-005/mL at a rate of 40 gal/A using a cabinet track sprayer. Negative controls were sprayed with water and positive controls with glufosinate. Pots were randomly placed in a growth room at 25° C. and 50% RH, and watered as necessary. Treatments were replicated five times and evaluated at 7 and 14 days for visual % damage, with 0% indicating no damage and 100% indicating plant death.
# In field testing, field soil containing weeds at the 1-5 leaf stage were treated with 38.2 L MBI-005/ha at a spray volume of 374 L/ha. Treatments, including water as the negative control and WeedBGon or Preen Broadleaf as the positive control, were replicated four times and applied twice at a four week interval. The positive control on Late watergrass, Ricefield Bulrush, Smallflower sedge and Arrowhead was an herbicide containing as active ingredient 2,4-D and an organosilicone surfactant was added to MBI-005. Treatments were assessed for % control and % ground cover.
# Post-emergent control of perennials was generally limited except for Oxalis pes-caprae.
compound,measurement,setting,value
CN1C(=O)[C@](O)(Cc2cccc(O)c2)N(C)C(=O)[C@@H]1Cc1c[nH]c2cccc([N+](=O)[O-])c12 [thaxtomin A],Sedge control (%),[1]; Thaxtomin 0.25 mg/mL,95a %
same,Sedge control (%),[1]; Thaxtomin 0.5 mg/mL,100a %
same,Watergrass control (%),[2]; Thaxtomin 0.25 mg/mL,5d %
same,Watergrass control (%),[2]; Thaxtomin 0.5 mg/mL,5d %
same,Rating at 0.1 mg/ml (Reduction of Germination),[3],++++ (95-100)
same,Rating at 0.1 mg/ml (Reduction of Germination),[4],++++ (95-100)
same,pre-emergence spectrum of activity,[5],broad spectrum activity
same,Rating at 0.1 mg/ml (Reduction of Germination),[6],+++ (85-94)
same,Rating at 0.1 mg/ml (Reduction of Germination),[7],++++ (95-100)
same,Rating at 0.1 mg/ml (Reduction of Germination),[8],++++ (95-100)
same,Rating at 0.1 mg/ml (Reduction of Germination),[9],++++ (95-100)
same,Rating at 0.1 mg/ml (Reduction of Germination),[10],++++ (95-100)
same,Rating at 0.1 mg/ml (Reduction of Germination),[11],++++ (95-100)
same,Rating at 0.1 mg/ml (Reduction of Germination),[12],++++ (95-100)
same,Rating at 0.1 mg/ml (Reduction of Germination),[13],++++ (95-100)
same,Rating at 0.1 mg/ml (Reduction of Germination),[14],++++ (95-100)
same,AVG E (visual % damage),[15]; 12.5% MBI-005 (0.125 mg/mL),1.3%
same,AVG E (visual % damage),[15]; 25% MBI-005 (0.25 mg/mL),1.3%
same,% Control MBI-005,[16]; MBI-005 12.5% of the label rate (Penoxsulam line),17.5%
same,% Control MBI-005,[16]; MBI-005 25% of the label rate (Bispyribac-sodium line),41.7%
same,symptoms of phytotoxicity,[17],no symptoms of phytotoxicity are observed
same,post-emergent activity,[18],limited post-emergent activity

# Reference: patent publication US9066516B2, “Uses of thaxtomin and thaxtomin compositions as herbicides” (priority 2008, dated 2015)
